Assay results taken from patent US6555528B2 (Board of Supervisors of Louisiana State University and …, priority 1999, dated 2003).
Like-named read-outs stand apart in the source and are kept apart here.

Experiments:
[1] = target: T1, biotin carboxylase from Escherichia coli (Escherichia coli, UniProt P24182); experiment: Biotin carboxylase inhibition assay (spectrophotometric, ADP production coupled to pyruvate kinase/lactate dehydrogenase); type: biochemical
T1 construct: histidine-tag (N); made in house; host or cells: E. coli BL21(DE3)pLysS
Procedure: It catalyzes the first partial reaction shown above as reaction (1). […] See S. Li et al., J. Biol. Chem., vol. 267, 855-863 (1992); and H. Kondo et al., Proc. Natl. Acad. Sci. USA, vol. 88, pp. 9730-9733 (1991).
Purification was performed with a histidine-tag attached to the amino terminus of a mutant form of the enzyme and nickel affinity chromatography as described in C. […] 38, pp. 3393-3400 (1999).
The amount of ADP was determined using pyruvate kinase and lactate dehydrogenase, and the oxidation of NADH was followed at 340 nm. Each measurement was carried out in a volume of 0.5 ml in 1 cm path length quartz cuvettes. The reaction mixture contained 10 units of pyruvate kinase, 18 units of lactate dehydrogenase, 0.5 mM phosphoenolpyruvate, 0.2 mM NADH, 8 mM MgCl2 and 100 mM HEPES at pH 8.0. For inhibition studies compound 1 was dissolved in water, and the pH adjusted to 8 with HCl. The concentration of compound 1 was assayed by phosphorus analysis using the method of B. Ames et al., J. Biol. Chem., vol. 235, pp. 769-775 (1960).

[2] = Water solubility (observation at synthesis); type: physicochemical

In the case of `O=C(O)CCCCC1SCC2C1NC(=O)N2C(=O)CP(=O)(O)O` (stereo not drawn) [Compound 1, 5-(6,8-Diaza-7-oxo-6-(2-phosphonoacetyl)-3-thiabicyclo[3.3.0] Oct-2-yl) pentanoic acid], the Ki ([1]; competitive inhibition versus ATP, read-out: slope inhibition constant) is reported as 8 mM, the Ki ([1]; preliminary characterization, 9 mM bicarbonate, 0.1 mM ATP, 100 mM biotin, pH 8.0, read-out: inhibition constant) is reported as about 8 mM and the water solubility [2] is reported as “water soluble”.

With `O=C(O)CP(=O)(O)O` [Phosphonoacetate] the “type of inhibition versus ATP” value ([1]; versus ATP) was “competitve inhibition” and the “type of inhibition versus bicarbonate” value ([1]; versus bicarbonate) was “noncompetitve inhibition”.

In the case of `O=C(O)CCCC[C@@H]1SC[C@@H]2NC(=O)N[C@@H]21` [biotin], the “substrate inhibition of biotin carboxylase” value ([1]; biotin as substrate) is reported as “noncompetitive substrate inhibitor”.
